The text below walks through data of patent publication US11926613B2, “Kinase inhibitors for the treatment of central and peripheral nervous system disorders” (UNIVERSITY OF MIAMI, priority 2017, dated 2024).

Molecules are shown by their SMILES. Some results are limits rather than exact numbers.

For one experiment, the system named is Primary Neurons. In words: HCS neurite outgrowth assay (High Content Screening with Primary Neurons). Type of experiment: cell-based. As to conditions: Primary neuron.
Experiment [1] deals with neurons from hippocampi of E18 rat embryos. The experiment in a line: Neurite growth length (% NTL) in cultured E18 rat hippocampal neurons, 9-point dose response, 48 hours. The class given is cell-based. To be noted: Rattus norvegicus, Neuron, 48 h; for activity at 0.078 µM: 78 nM; for activity at 0.156 µM: 156 nM; for activity at 0.312 µM: 312 nM; for activity at 0.625 µM: 625 nM. A digest of the protocol:
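Dissociated E18 rat hippocampal neurons at 1500 cells/well on PDL were exposed 48 h to 9 concentrations from 20 μM down to 0.078125 μM. After PFA fixation and βIII-tubulin/Hoechst staining, ArrayScan imaging traced neurites in at least 200–300 neurons per condition to give % NTL.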

The term EC50 denotes the concentration needed to bring the measured effect to its halfway point. Low values mean higher potency in that assay, high ones lower potency in that assay. Turning to `COc1ccc(O)c(C(=O)c2ccc(C(=O)N[C@@H]3CNC[C@H]3NC(=O)c3ccc4[nH]ncc4c3)cc2)c1F` [Example A42, N-[(3R,4R)-4-[4-(2-fluoro-6-hydroxy-3-methoxybenzoyl)benzamido]pyrrolidin-3-yl]-1H-indazole-5-carboxamide], in the experiment with Primary Neurons, a half-maximal effect (EC50) was put at 2.45 µM. In experiment [1], the activity at 0.078 µM worked out at 115%, the activity at 0.156 µM was 110%, the activity at 0.312 µM is 126% and the activity at 0.625 µM stood at 118%. In experiment [1], the activity at 1.25 µM worked out at 169%, the activity at 2.5 µM stood at 255%, the activity at 5 µM turned out to be 403% and the activity at 10 µM turned out to be 431%. Further, the activity at 20 µM in experiment [1] came to 369%.
`COc1ccc(O)c(C(=O)c2ccc(C(=O)N[C@@H]3CNC[C@H]3NC(=O)c3cn[nH]c3)cc2)c1F` [Example A43, N-[(3R,4R)-4-[4-(2-fluoro-6-hydroxy-3-methoxybenzoyl)benzamido]pyrrolidin-3-yl]-1H-pyrazole-4-carboxamide] yielded an EC50 in the experiment with Primary Neurons of 3.11 µM. For the same compound, in experiment [1], the activity at 0.078 µM was found to be 118%, the activity at 0.156 µM amounted to 118%, the activity at 0.312 µM was 115% and the activity at 0.625 µM worked out at 114%. Further, in experiment [1], the activity at 1.25 µM worked out at 124%, the activity at 2.5 µM was 136%, the activity at 5 µM amounted to 144% and the activity at 10 µM was 155%. In addition, the activity at 20 µM in experiment [1] was 173%.
The compound `COc1ccc(O)c(C(O)c2ccc(C(=O)N[C@@H]3CNC[C@H]3NC(=O)c3ccnc(N)n3)cc2)c1F` (stereo partly drawn) [Example A44, 2-amino-N-[(3R,4R)-4-{4-[(2-fluoro-6-hydroxy-3-methoxyphenyl)(hydroxy)methyl]benzamido}pyrrolidin-3-yl]pyrimidine-4-carboxamide] returned an EC50 in the experiment with Primary Neurons of 2.05 µM. In experiment [1], the activity at 0.078 µM stood at 94%, the activity at 0.156 µM was 87.1%, the activity at 0.312 µM worked out at 78.8% and the activity at 0.625 µM was 76.4%. In addition, in experiment [1], the activity at 1.25 µM is 99.4%, the activity at 2.5 µM was 96.2%, the activity at 5 µM stood at 104% and the activity at 10 µM is 103%. The activity at 20 µM in experiment [1] was 105%.
As for `COc1ccc(O)c(Cc2ccc(C(=O)N[C@@H]3CNC[C@H]3NC(=O)c3ccnc(N)n3)cc2)c1F` [Example A45, 2-amino-N-[(3R,4R)-4-{4-[(2-fluoro-6-hydroxy-3-methoxyphenyl)methyl]benzamido}pyrrolidin-3-yl]pyrimidine-4-carboxamide], the EC50 with Primary Neurons is > 20 µM. In addition, in experiment [1], the activity at 0.078 µM amounted to 96.5%, the activity at 0.156 µM was determined as 90.2%, the activity at 0.312 µM was 83.7% and the activity at 0.625 µM was 87%. In experiment [1], the activity at 1.25 µM came out at 84.8%, the activity at 2.5 µM was determined as 93.3%, the activity at 5 µM stood at 89.1% and the activity at 10 µM is 97.2%. Besides, the activity at 20 µM in experiment [1] came to 111%.
As to `COc1ccc(O)c(C(=O)c2ccc(C(=O)N[C@@H]3CNC[C@H]3NC(=O)Cc3cccnc3)cc2)c1F` [Example A46, 4-(2-fluoro-6-hydroxy-3-methoxybenzoyl)-N-[(3R,4R)-4-[2-(pyridin-3-yl)acetamido]pyrrolidin-3-yl]benzamide], in the experiment on Primary Neurons, the EC50 stood at 1.65 µM. In experiment [1], the activity at 0.078 µM stood at 95.6%, the activity at 0.156 µM was found to be 95%, the activity at 0.312 µM came to 90.8% and the activity at 0.625 µM came to 77.5%. Moreover, in experiment [1], the activity at 1.25 µM is 93.1%, the activity at 2.5 µM came to 86.8%, the activity at 5 µM was found to be 88.1% and the activity at 10 µM turned out to be 100%. Further, the activity at 20 µM in experiment [1] stood at 90.2%.
For the compound `COc1ccc(O)c(C(=O)c2ccc(C(=O)N[C@@H]3CNC[C@H]3NC(=O)Cc3cn[nH]c3)cc2)c1F` [Example A47, 4-(2-fluoro-6-hydroxy-3-methoxybenzoyl)-N-[(3R,4R)-4-[2-(1H-pyrazol-4-yl)acetamido]pyrrolidin-3-yl]benzamide], the EC50 in the experiment on Primary Neurons was determined as 7.43 µM. Further, in experiment [1], the activity at 0.078 µM turned out to be 100%, the activity at 0.156 µM came to 99.3%, the activity at 0.312 µM was determined as 99.7% and the activity at 0.625 µM is 96.8%. Moreover, in experiment [1], the activity at 1.25 µM is 104%, the activity at 2.5 µM was found to be 112%, the activity at 5 µM was 122% and the activity at 10 µM came out at 128%. Besides, the activity at 20 µM in experiment [1] stood at 162%.
In turn, `COc1ccc(O)c(C(=O)c2ccc(C(=O)N[C@@H]3CNC[C@H]3NC(=O)c3ccnc4[nH]cnc34)cc2)c1F` [Example A48, N-[(3R,4R)-4-[4-(2-fluoro-6-hydroxy-3-methoxybenzoyl)benzamido]pyrrolidin-3-yl]-3H-imidazo[4,5-b]pyridine-7-carboxamide] returned an EC50 in the experiment with Primary Neurons of 6.08 µM. Moreover, in experiment [1], the activity at 0.078 µM is 109%, the activity at 0.156 µM is 117%, the activity at 0.312 µM came out at 116% and the activity at 0.625 µM is 120%. In addition, in experiment [1], the activity at 1.25 µM was 144%, the activity at 2.5 µM stood at 219%, the activity at 5 µM amounted to 332% and the activity at 10 µM was determined as 461%. In addition, in experiment [1], the activity at 20 µM amounted to 421%.
In the experiment with Primary Neurons, `O=C(N[C@@H]1CNC[C@H]1NC(=O)c1ccc2[nH]ncc2c1)c1ccc(C(=O)c2c(O)cccc2F)cc1` [Example A49, N-[(3R,4R)-4-[4-(2-fluoro-6-hydroxybenzoyl)benzamido]pyrrolidin-3-yl]-1H-indazole-5-carboxamide] showed an EC50 of 2.46 µM. For the same compound, in experiment [1], the activity at 0.078 µM amounted to 107%, the activity at 0.156 µM was 99.5%, the activity at 0.312 µM turned out to be 101% and the activity at 0.625 µM was found to be 112%. In addition, in experiment [1], the activity at 1.25 µM is 139%, the activity at 2.5 µM was determined as 200%, the activity at 5 µM was found to be 298% and the activity at 10 µM was 322%. The activity at 20 µM in experiment [1] is 207%.
`Nc1nccc(C(=O)N[C@@H]2CNC[C@H]2NC(=O)c2ccc(C(=O)c3c(O)cccc3F)cc2)n1` [Example A50, 2-amino-N-[(3R,4R)-4-[4-(2-fluoro-6-hydroxybenzoyl)benzamido]pyrrolidin-3-yl]pyrimidine-4-carboxamide] returned an EC50 with Primary Neurons of 3.6 µM. In experiment [1], the activity at 0.078 µM came to 113%, the activity at 0.156 µM stood at 113%, the activity at 0.312 µM turned out to be 118% and the activity at 0.625 µM was determined as 136%. Besides, in experiment [1], the activity at 1.25 µM stood at 194%, the activity at 2.5 µM came out at 285%, the activity at 5 µM turned out to be 431% and the activity at 10 µM was 561%. In experiment [1], the activity at 20 µM turned out to be 457%.
In the experiment with Primary Neurons, `O=C(N[C@@H]1CNC[C@H]1NC(=O)c1ccc(C(=O)c2c(O)cccc2F)cc1)c1ccncc1` [Example A51, N-[(3R,4R)-4-[4-(2-fluoro-6-hydroxybenzoyl)benzamido]pyrrolidin-3-yl]pyridine-4-carboxamide] yielded an EC50 of 4.9 µM. Also, in experiment [1], the activity at 0.078 µM stood at 129%, the activity at 0.156 µM stood at 129%, the activity at 0.312 µM is 135% and the activity at 0.625 µM came to 158%. Also, in experiment [1], the activity at 1.25 µM stood at 191%, the activity at 2.5 µM is 260%, the activity at 5 µM amounted to 362% and the activity at 10 µM was found to be 506%. Besides, the activity at 20 µM in experiment [1] came out at 421%.
As to `COc1ccc(O)c(C(=O)c2ccc(C(=O)N[C@@H]3CNC[C@H]3NC(=O)c3ccc4c(cnn4C)c3)cc2)c1F` [Example A53, N-[(3R,4R)-4-[4-(2-fluoro-6-hydroxy-3-methoxybenzoyl)benzamido]pyrrolidin-3-yl]-1-methyl-1H-indazole-5-carboxamide], in the experiment with Primary Neurons, the EC50 was 0.814 µM. For the same compound, in experiment [1], the activity at 0.078 µM stood at 90%, the activity at 0.156 µM turned out to be 82.5%, the activity at 0.312 µM was 79.3% and the activity at 0.625 µM amounted to 76.3%. In experiment [1], the activity at 1.25 µM was found to be 85.8%, the activity at 2.5 µM came to 88.5%, the activity at 5 µM was found to be 90.1% and the activity at 10 µM was found to be 91.9%. For the same compound, the activity at 20 µM in experiment [1] was found to be 70%.
Consider `COc1ccc(O)c(C(=O)c2ccc(C(=O)N[C@@H]3CNC[C@H]3NC(=O)c3ccnc(N)c3)cc2)c1F` [Example A54, 2-amino-N-[(3R,4R)-4-[4-(2-fluoro-6-hydroxy-3-methoxybenzoyl)benzamido]pyrrolidin-3-yl]pyridine-4-carboxamide], for which, in the experiment with Primary Neurons, the concentration giving a half-maximal response (EC50) is > 20 µM. In addition, in experiment [1], the activity at 0.078 µM was 83.1%, the activity at 0.156 µM stood at 79.9%, the activity at 0.312 µM came out at 84.3% and the activity at 0.625 µM turned out to be 84.1%. In experiment [1], the activity at 1.25 µM is 94.7%, the activity at 2.5 µM was found to be 105%, the activity at 5 µM is 120% and the activity at 10 µM turned out to be 151%. The activity at 20 µM in experiment [1] stood at 228%.
Take `COc1ccc(O)c(C(=O)c2ccc(C(=O)N[C@@H]3CNC[C@H]3NC(=O)c3ccnc4[nH]ccc34)cc2)c1F` [Example A56, N-[(3R,4R)-4-[4-(2-fluoro-6-hydroxy-3-methoxybenzoyl)benzamido]pyrrolidin-3-yl]-1H-pyrrolo[2,3-b]pyridine-4-carboxamide]: in the experiment with Primary Neurons, the EC50 amounted to 8.54 µM. For the same compound, in experiment [1], the activity at 0.078 µM was 128%, the activity at 0.156 µM was found to be 137%, the activity at 0.312 µM stood at 131% and the activity at 0.625 µM amounted to 133%. For the same compound, in experiment [1], the activity at 1.25 µM came out at 165%, the activity at 2.5 µM was found to be 196%, the activity at 5 µM was found to be 267% and the activity at 10 µM amounted to 375%. Further, the activity at 20 µM in experiment [1] was 488%.
